From US10285989B2, “Pyrimidinone amide compounds as PDE2 inhibitors” (Merck Sharp & Dohme Corp., priority 2015, dated 2019)
Read-outs that look alike come from different tables or passages of the source.

Columns and labels:
human PDE2A1 = human PDE2A1 (Homo sapiens (Human), UniProt O00408); test: PDE2 IMAP FP inhibition assay, human PDE2A1 (selectivity panel format); type: biochemical
Method in brief: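 Enzyme dosed to give about 20% substrate turnover acts for 60 min at room temperature on 50 nM FAM-cAMP plus 1000 nM cGMP (Tris pH 7.2, MgCl2, DTT, Tween-20 buffer). IMAP binding solution then stops the reaction; after 1 h, polarization is measured from parallel and perpendicular fluorescence.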

Rhesus PDE2A3 = Rhesus PDE2A3 (Macaca mulatta, UniProt B3VTJ2); test: PDE2 fluorescence polarization (IMAP FP) inhibition assay, rhesus PDE2A3; type: biochemical, rhesus macaque
P-glycoprotein (P-gp) = P-glycoprotein (P-gp) (Homo sapiens (Human), UniProt P08183); test: P-gp transport, experimental BA/AB ratio, human; type: in vitro ADME; details: LLC-PK1, 1 μM substrate concentration
Text: (§1) See Doan et al. “Passive permeability and P-glycoprotein-mediated efflux differentiate central nervous system (CNS) and non-CNS marketed drugs”, J. Pharm. Exper. […] Desirable human BA/AB ratio is less than 2.0. […] See, for example, Desai, et al. Integration of in Silico and in Vitro Tools for Scaffold Optimization during Drug Discovery: Predicting P-glycoprotein Efflux” Mol. Pharmac.

[1] = target: P-glycoprotein (P-gp, rat Mdr1a) (Rattus norvegicus, UniProt Q6PSM0); test: P-gp transport, experimental BA/AB ratio, rat LLC-Mdr1a; type: in vitro ADME; details: LLC-PK1; rat LLC-Mdrla; 1 μM substrate concentration
Text: as §1

[2] = Lab A, read-out: Human PDE2 Ki (nM) - Lab A
[3] = Lab A, read-out: Rhesus PDE2 Ki (nM) - Lab A
[4] = Lab B, read-out: Human PDE2 Ki (nM) - Lab B
[5] = Lab B, read-out: Rhesus PDE2 Ki (nM) - Lab B

Rhesus PDE2A3, sequence (B3VTJ2 1-941): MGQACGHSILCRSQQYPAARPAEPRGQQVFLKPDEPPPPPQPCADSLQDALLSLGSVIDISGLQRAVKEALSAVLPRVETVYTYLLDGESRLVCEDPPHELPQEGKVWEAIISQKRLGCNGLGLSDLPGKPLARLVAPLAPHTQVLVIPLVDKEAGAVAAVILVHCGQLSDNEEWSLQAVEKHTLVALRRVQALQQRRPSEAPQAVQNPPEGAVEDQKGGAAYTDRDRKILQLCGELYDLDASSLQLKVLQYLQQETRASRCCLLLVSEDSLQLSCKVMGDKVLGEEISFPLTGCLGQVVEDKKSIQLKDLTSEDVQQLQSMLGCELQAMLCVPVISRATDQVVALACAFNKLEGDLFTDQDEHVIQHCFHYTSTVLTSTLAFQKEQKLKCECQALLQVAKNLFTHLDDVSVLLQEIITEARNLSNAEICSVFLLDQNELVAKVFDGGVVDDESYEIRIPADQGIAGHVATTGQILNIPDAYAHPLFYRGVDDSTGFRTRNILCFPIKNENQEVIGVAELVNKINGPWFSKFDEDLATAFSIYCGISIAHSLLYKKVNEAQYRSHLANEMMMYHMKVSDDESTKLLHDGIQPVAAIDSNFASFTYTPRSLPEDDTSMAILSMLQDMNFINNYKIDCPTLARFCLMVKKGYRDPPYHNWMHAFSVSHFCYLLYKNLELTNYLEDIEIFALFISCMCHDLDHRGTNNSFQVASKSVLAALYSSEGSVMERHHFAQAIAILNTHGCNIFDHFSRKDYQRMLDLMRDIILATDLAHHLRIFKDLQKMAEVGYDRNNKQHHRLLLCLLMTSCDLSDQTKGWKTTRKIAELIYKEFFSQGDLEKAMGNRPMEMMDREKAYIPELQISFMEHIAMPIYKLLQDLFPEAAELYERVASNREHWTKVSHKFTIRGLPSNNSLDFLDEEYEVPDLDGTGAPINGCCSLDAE
P-glycoprotein (P-gp, rat Mdr1a), sequence (Q6PSM0 1-1272): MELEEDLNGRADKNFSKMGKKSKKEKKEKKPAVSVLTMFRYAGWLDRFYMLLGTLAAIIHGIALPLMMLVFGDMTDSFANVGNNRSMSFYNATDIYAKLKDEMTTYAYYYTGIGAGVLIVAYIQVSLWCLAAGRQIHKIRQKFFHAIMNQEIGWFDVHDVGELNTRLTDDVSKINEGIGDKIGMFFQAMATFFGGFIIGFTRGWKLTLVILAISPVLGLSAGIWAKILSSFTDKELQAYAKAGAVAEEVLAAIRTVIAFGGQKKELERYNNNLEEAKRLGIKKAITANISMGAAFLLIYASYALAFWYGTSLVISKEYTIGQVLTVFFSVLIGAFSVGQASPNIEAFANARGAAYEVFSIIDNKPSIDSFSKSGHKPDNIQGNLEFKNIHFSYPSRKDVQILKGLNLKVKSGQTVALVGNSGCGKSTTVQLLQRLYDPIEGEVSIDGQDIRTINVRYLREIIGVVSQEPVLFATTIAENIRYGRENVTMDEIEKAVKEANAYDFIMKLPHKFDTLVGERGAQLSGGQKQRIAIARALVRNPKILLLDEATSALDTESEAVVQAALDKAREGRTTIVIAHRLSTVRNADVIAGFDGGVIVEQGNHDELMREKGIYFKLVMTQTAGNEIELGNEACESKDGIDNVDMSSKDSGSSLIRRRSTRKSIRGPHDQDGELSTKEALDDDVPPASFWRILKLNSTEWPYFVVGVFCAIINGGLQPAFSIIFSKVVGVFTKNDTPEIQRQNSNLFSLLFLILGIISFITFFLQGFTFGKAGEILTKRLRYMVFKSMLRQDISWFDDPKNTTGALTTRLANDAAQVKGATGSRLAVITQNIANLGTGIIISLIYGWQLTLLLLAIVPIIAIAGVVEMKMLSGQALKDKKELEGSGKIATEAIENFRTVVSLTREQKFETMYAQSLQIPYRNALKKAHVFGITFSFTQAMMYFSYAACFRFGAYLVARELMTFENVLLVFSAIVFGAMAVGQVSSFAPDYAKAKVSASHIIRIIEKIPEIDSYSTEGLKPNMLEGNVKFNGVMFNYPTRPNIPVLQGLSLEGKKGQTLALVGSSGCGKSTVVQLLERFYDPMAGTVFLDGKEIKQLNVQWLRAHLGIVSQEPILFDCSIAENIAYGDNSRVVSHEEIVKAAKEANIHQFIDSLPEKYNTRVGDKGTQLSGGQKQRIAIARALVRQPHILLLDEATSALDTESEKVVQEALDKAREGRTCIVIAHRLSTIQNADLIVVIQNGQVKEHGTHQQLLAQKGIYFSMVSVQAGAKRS
P-glycoprotein (P-gp), sequence (P08183 whole entry): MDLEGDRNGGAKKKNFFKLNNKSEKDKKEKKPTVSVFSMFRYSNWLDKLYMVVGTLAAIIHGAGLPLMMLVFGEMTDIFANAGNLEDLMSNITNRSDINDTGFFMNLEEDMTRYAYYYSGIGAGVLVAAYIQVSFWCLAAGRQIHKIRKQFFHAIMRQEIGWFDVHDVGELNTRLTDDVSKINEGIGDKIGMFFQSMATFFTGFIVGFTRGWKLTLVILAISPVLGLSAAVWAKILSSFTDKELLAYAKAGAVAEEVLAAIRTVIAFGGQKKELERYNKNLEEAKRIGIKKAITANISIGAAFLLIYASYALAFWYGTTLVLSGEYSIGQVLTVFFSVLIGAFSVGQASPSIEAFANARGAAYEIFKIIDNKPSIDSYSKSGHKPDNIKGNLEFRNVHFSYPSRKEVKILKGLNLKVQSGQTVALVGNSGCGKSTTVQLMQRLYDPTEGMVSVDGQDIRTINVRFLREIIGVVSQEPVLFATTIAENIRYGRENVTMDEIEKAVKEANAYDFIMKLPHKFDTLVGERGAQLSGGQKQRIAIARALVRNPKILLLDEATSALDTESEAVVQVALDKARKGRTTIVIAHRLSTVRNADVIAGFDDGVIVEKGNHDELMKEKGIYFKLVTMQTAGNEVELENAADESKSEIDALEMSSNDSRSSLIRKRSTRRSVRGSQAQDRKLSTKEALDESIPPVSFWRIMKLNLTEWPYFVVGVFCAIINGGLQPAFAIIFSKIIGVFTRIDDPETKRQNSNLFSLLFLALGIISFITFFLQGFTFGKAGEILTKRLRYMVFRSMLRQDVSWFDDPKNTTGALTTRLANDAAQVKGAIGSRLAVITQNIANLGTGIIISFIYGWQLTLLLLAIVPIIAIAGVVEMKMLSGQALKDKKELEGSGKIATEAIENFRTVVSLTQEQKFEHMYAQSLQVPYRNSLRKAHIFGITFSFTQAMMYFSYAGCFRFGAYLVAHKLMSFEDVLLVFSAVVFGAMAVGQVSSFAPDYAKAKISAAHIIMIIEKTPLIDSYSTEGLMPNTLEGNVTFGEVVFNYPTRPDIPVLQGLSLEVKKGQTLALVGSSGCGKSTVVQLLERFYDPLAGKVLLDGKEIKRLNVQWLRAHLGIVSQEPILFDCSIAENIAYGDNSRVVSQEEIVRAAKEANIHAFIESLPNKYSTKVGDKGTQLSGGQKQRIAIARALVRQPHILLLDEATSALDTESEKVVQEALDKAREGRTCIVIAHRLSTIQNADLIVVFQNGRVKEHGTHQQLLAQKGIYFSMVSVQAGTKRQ
human PDE2A1, sequence (O00408 other isoform, or with tags, fused parts or gaps): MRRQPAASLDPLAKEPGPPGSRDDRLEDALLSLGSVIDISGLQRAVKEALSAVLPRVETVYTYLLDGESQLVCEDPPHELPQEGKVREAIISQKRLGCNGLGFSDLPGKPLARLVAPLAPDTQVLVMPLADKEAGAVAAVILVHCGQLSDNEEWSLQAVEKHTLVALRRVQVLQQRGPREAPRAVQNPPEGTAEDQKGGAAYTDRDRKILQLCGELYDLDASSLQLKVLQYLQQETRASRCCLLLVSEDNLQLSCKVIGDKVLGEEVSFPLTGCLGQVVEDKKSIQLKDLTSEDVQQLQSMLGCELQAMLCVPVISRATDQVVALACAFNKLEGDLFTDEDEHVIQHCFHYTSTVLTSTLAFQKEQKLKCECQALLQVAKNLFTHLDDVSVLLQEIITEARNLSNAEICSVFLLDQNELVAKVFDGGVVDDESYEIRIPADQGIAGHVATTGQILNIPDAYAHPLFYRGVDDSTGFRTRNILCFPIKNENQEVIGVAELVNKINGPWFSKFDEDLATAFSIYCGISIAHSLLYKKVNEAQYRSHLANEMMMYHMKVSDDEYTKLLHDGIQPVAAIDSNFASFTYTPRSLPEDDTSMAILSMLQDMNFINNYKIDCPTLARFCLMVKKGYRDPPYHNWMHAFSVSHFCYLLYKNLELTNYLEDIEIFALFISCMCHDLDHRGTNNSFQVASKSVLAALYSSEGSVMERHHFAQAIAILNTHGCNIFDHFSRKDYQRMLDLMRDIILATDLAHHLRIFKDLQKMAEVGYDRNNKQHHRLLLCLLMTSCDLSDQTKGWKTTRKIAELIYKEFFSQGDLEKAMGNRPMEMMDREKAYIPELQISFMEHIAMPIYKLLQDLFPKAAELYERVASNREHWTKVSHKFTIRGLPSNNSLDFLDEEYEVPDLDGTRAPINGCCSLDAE

| SMILES | Ki (human PDE2A1; [2]) [nM] | Ki (Rhesus PDE2A3; [3]) [nM] | efflux ratio at 1 μM (P-glycoprotein (P-gp)) | efflux ratio at 1 μM [1] | Ki (human PDE2A1; [4]) [nM] | Ki (Rhesus PDE2A3; [5]) [nM] |
| --- | --- | --- | --- | --- | --- | --- |
| C[C@@H](NC(=O)c1cc(=O)[nH]c(N2CCC2)n1)c1ccc(C(F)(F)F)cc1 [Example 10, (R)-2-(azetidin-1-yl)-6-oxo-N-(1-(4-(trifluoromethyl)phenyl)ethyl)-1,6-dihydropyrimidine-4-carboxamide] | 8.2 | 8.5 | 0.5 | 3.1 |  |  |
| C[C@@H](NC(=O)c1cc(=O)[nH]c(N2CC[C@H](F)C2)n1)c1ccc(C(F)(F)F)cc1 [Example 12, 2-((S)-3-fluoropyrrolidin-1-yl)-6-oxo-N—((R)-1-(4-(trifluoromethyl)phenyl)ethyl)-1,6-dihydropyrimidine-4-carboxamide] | 1.8 | 4.5 | 0.7 | 9 |  |  |
| C[C@@H](NC(=O)c1cc(=O)[nH]c(N2CCC(F)(F)C2)n1)c1ccc(C(F)(F)F)cc1 [Example 13, (R)-2-(3,3-difluoropyrrolidin-1-yl)-6-oxo-N-(1-(4-(trifluoromethyl)phenyl)ethyl)-16-dihydropyrimidine-4-carboxamide] | 9.2 | 13 | 0.6 | 5.9 |  |  |
| C[C@@H](NC(=O)c1cc(=O)[nH]c(N2CC(F)C2)n1)c1ccc(C(F)(F)F)cc1 [Example 23, 2-(3-Fluoroazetidin-1-yl)-6-oxo-N-{(1R)-1-[4-(trifluoromethyl)phenyl]ethyl}-1,6-dihydropyrimidine-4-carboxamide] | 16 | 27 | 1.4 | 7.6 |  |  |
| O=C(N[C@@H](c1ccc(C(F)(F)F)cc1)C1CC1)c1cc(=O)[nH]c(N2CCCC2)n1 [Example 26] | 0.34 | 1.4 | 0.9 | 4.5 |  |  |
| O=C(N[C@@H](c1ccc(SC(F)(F)F)cc1)C1CC1)c1cc(=O)[nH]c(N2CCCC2)n1 [Example 27, N-[(R)-cyclopropyl{4-[(trifluoromethyl)sulfanyl]phenyl}methyl]-6-oxo-2-pyrrolidin-1-yl-1,6-dihydropyrimidine-4-carboxamide] | 0.21 | 0.58 | 0.8 | 7 |  |  |
| CC(C)[C@@H](NC(=O)c1cc(=O)[nH]c(N(C)C)n1)c1ccc(SC(F)(F)F)cc1 [Example 30, 2-(dimethylamino)-N-[(1R)-2-methyl-1-{4-[(trifluoromethyl)sulfanyl]phenyl}propyl]-6-oxo-1,6-dihydropyrimidine-4-carboxamide] | ≤ 5.1 | 0.19 | 0.4 | 2.6 | 0.37 | 0.22 |
| CN(C)c1nc(C(=O)N[C@@H](c2ccc(C(F)(F)F)cc2F)C(C)(C)C)cc(=O)[nH]1 [Example 37, 2-(dimethylamino)-N-{(1R)-1-[2-fluoro-4-(trifluoromethyl)phenyl]-2,2-dimethylpropyl}-6-oxo-1,6-dihydropyrimidine-4-carboxamide] |  |  | 1 | 1.2 | 0.13 | 0.11 |
| CN(C)c1nc(C(=O)N[C@@H](c2ccc(C(F)(F)F)c(F)c2)C2(C)CC2)cc(=O)[nH]1 [Example 42, 2-(dimethylamino)-N-[(R)-[3-fluoro-4-(trifluoromethyl)phenyl](1-methylcyclopropyl)methyl]-6-oxo-1,6-dihydropyrimidine-4-carboxamide] |  |  | 0.7 | 3 | 0.44 | 0.45 |
| CN(C)c1nc(C(=O)N[C@@H](c2ccc(C(F)(F)F)cc2)C2(C)CC2)cc(=O)[nH]1 [Example 43, 2-(dimethylamino)-N-{(R)-(1-methylcyclopropyl)[4-(trifluoromethyl)phenyl]methyl}-6-oxo-1,6-dihydropyrimidine-4-carboxamide] |  |  | 0.7 | 2.3 | 0.32 | 0.23 |
| CN(C)c1nc(C(=O)NC2(c3ccc(S(F)(F)(F)(F)F)cc3)CC2)cc(=O)[nH]1 [Example 45, 2-(dimethylamino)-6-oxo-N-{1-[4-(pentafluoro-λ^6-sulfanyl)phenyl]cyclopropyl}-1,6-dihydropyrimidine-4-carboxamide] |  |  | 0.6 | 10.1 | 1.7 | 2.1 |

Now from value to compound:

| Ki (human PDE2A1; [2]) [nM] | Ki (Rhesus PDE2A3; [3]) [nM] | efflux ratio at 1 μM (P-glycoprotein (P-gp)) | efflux ratio at 1 μM [1] | Ki (human PDE2A1; [4]) [nM] | Ki (Rhesus PDE2A3; [5]) [nM] | SMILES |
| --- | --- | --- | --- | --- | --- | --- |
|  |  | 1.5 | 9.7 | 0.51 | 0.42 | CN(C)c1nc(C(=O)N[C@@H](c2ccc(CC(F)(F)F)cc2)C(C)(C)C)cc(=O)[nH]1 [Example 31, 2-(dimethylamino)-N-{(1R)-2,2-dimethyl-1-[4-(2,2,2-trifluoroethyl)phenyl]propyl}-6-oxo-1,6-dihydropyrimidine-4-carboxamide] |
|  |  | 2 | 12.7 | 0.39 | 0.46 | CN(C)c1nc(C(=O)N[C@@H](c2ccc(OC(F)F)cc2)C(C)(C)C)cc(=O)[nH]1 [Example 34, N-{(1R)-1-[4-(difluoromethoxy)phenyl]-2,2-dimethylpropyl}-2-(dimethylamino)-6-oxo-1,6-dihydropyrimidine-4-carboxamide] |
|  |  | 0.5 | 3.6 | 0.11 | 0.12 | CN(C)c1nc(C(=O)N[C@@H](c2ccc(C3CC3)cc2)C(C)(C)C)cc(=O)[nH]1 [Example 35, N-[(1R)-1-(4-cyclopropylphenyl)-2,2-dimethylpropyl]-2-(dimelhylamino)-6-oxo-1,6-dihydropyrimidine-4-carboxamide] |
|  |  | 0.5 | 2.4 | 1.02 | 0.87 | C[C@@H](NC(=O)c1cc(=O)[nH]c(N(C)C)n1)c1ccc(C2CC2)c(F)c1 [Example 40, N-[(1R)-1-(4-cyclopropyl-3-fluorophenyl)ethyl]-2-(dimethylamino)-6-oxo-1,6-dihydropyrimidine-4-carboxamide] |
|  |  | 0.4 | 3.6 | 0.36 | 0.31 | CC(C)[C@@H](NC(=O)c1cc(=O)[nH]c(N(C)C)n1)c1ccc(C2CC2)c(F)c1 [Example 41, N-[(1R)-1-(4-cyclopropyl-3-fluorophenyl)-2-methylpropyl]-2-(dimethylamino)-6-oxo-1,6-dihydropyrimidine-4-carboxamide] |
|  |  | 0.7 | 2.1 | 1.5 | 1.6 | CN(C)c1nc(C(=O)N[C@@H](c2ccc(C(C)(C)C)cc2)C2(C)CC2)cc(=O)[nH]1 [Example 44, N-[(R)-(4-tert-butylphenyl)(1-methylcyclopropyl)methyl]-2-(dimethylamino)-6-oxo-1,6-dihydropyrimidine-4-carboxamide] |
|  |  | 0.6 | 2.1 | 0.44 | 0.43 | CC(C)[C@@H](NC(=O)c1cc(=O)[nH]c(N(C)C)n1)c1ccc(C(F)(F)F)cc1 [Example 47, 2-(dimethylamino)-N-{(1R)-2-methyl-1-[4-(trifluoromethyl)phenyl]propyl}-6-oxo-1,6-dihydropyrimidine-4-carboxamide] |
